Data on 7 molecules can be found in patent publication US8476270B2, “Dihydropyrido[4,3-b]pyrazine-3-ones as modulators of toll-like receptors” (Gilead Sciences, Inc., priority 2009, dated 2013).

Each structure is given as a SMILES string.

In this test the test system is human Peripheral Blood Mononuclear Cell (PMBC). The test can be described thus: PBMC assay: cytokine (IFN-alpha) stimulation at 24 hours. To be noted: 24 hours incubation, IFN-alpha in supernatant (Luminex). It is filed as cell-based. As to the method: PBMC Assay Protocol Assays were conducted to determine cytokine stimulation at 24 hours from human Peripheral Blood Mononuclear Cell (PMBC) using the compounds of the present invention. The assays were run in duplicate, with 8-point, half-log dilution curves. The compounds of the present invention were diluted from 10 mM DMSO solution. Cell supernatants are assayed directly for IFNa and 1:10 dilution for TNFa. The assays were performed in a similar fashion as described in Bioorg. Med. Chem. Lett. 16, 4559, (2006). Specifically, cryo-preserved PBMCs were thawed and seeded 96 well plates with 750,000 cells/well in 190 μL/well cell media. The PBMCs were then incubated for 1 hour at 37° C. at 5% CO2. Then, the compounds of the present invention were added in 10 μL cell media at 8 point, half-log dilution titration. The plates were incubated at 37° C. and 5% CO2 for 24 hours and then spinned at 1200 rpm for 10 min, which was followed by collecting supernatant and storing the same at −80° C. Cytokine secretion was assayed with Luminex and Upstate multi-plex kits, using a Luminex analysis instrument. IFN ECmax value for a compound was the concentration at which the compound stimulated maximum IFN-a production as determined using the assay method above.
Take `CCCCOc1cc2c(c(N)n1)NC(=O)CN2Cc1cccc(CN2CCCC2)c1` [A]: the “MEC = minimum concentration for induction of IFN-alpha = 3-fold over background” value is listed as “d (d: 100 nM-1000 nM)”.

Consider `CCCCOc1cc2c([nH]c(=O)c(=O)n2Cc2ccc(-c3ccc(CN4CCCC4)cc3)cc2)c(N)n1` [G], for which the “MEC = minimum concentration for induction of IFN-alpha = 3-fold over background” value is “c (c: 10 nM-99 nM)”.

Turning to `COCCOc1nc(N)c2c(c1Cl)N(Cc1ccc(CN3CCCC3)cc1)CC(=O)N2` [D], the “MEC = minimum concentration for induction of IFN-alpha = 3-fold over background” value is on record as “e (e: = 1000 nM)”.

`COCCOc1cc2c(c(N)n1)NC(=O)CN2Cc1ccc(CN2CCCC2)cc1` [C]: the “MEC = minimum concentration for induction of IFN-alpha = 3-fold over background” value is on record as “a (a: = 1 nM)”.

Consider `CCCCOc1cc2c([nH]c(=O)c(=O)n2Cc2ccc(-c3cccc(CN4CCCC4)c3)cc2)c(N)n1` [F], for which the “MEC = minimum concentration for induction of IFN-alpha = 3-fold over background” value is on record as “c (c: 10 nM-99 nM)”.

Regarding `CCCCOc1cc2c([nH]c(=O)c(=O)n2Cc2ccc(CN3CCCC3)cc2)c(N)n1` [E], the “MEC = minimum concentration for induction of IFN-alpha = 3-fold over background” value is listed as “b (b: 1 nM-9 nM)”.

As for `CCCCOc1cc2c(c(N)n1)NC(=O)CN2Cc1ccc(CN2CCCC2)cc1` [B], the “MEC = minimum concentration for induction of IFN-alpha = 3-fold over background” value was “c (c: 10 nM-99 nM)”.
